How the values were obtained:
PAMPA permeability assay = format: in vitro ADME; settings: 10 μM donor, PBS, 4 hours at room temperature, lecithin/dodecane membrane
Description: PAMPA Studies. The compounds of the present disclosure were tested in a PAMPA permeability assay to assess passive transcellular permeation.
Protocol. 0.2 mM working solution was prepared by diluting 10 mM stock solution with DMSO. 10 μM donor solution (5% DMSO) was prepared by diluting 20 μL of working solution with 380 μL PBS. 150 μL of 10 μM donor solutions to each well of the donor plate, whose PVDF membrane was precoated with 5 μL of 1% lecithin/dodecane mixture. Duplicates were prepared. 300 μL of PBS was added to each well of the PTFE acceptor plate. The donor plate and acceptor plate were combined and incubated for 4 hours at room temperature with shaking at 300 rpm. Preparation of TO sample: 20 μL donor solution was transferred to new well followed by the addition of 250 μL PBS (DF: 13.5), 130 μL ACN (containing internal standard) as TO sample. Preparation of acceptor sample: The plate was removed from incubator. 270 μL solution was transferred from each acceptor well and mixed with 130 μL ACN (containing internal standard) as acceptor sample. Preparation of donor sample: 20 μL solution was transferred from each donor well and mixed with 250 μL PBS (DF: 13.5), 130 μL ACN (containing internal standard) as donor sample. Acceptor samples and donor samples were all analysed by LC-MS/MS.
The measured PAMPA permeability values of compounds of the present disclosure are shown in Table B below (“$$$$” means >10 nm/“$$$” means ≥3 and <10 nm/s; “$$” means ≥1 and <3 nm/s; “$” means <1 nm/s).

P-glycoprotein (P-gp) = target: T1, P-glycoprotein (P-gp) (Homo sapiens, UniProt P08183); experiment: P-gp MDCK-MDR1 permeability assay; format: in vitro ADME; settings: efflux ratio, MDCK-MDR1 cells
T1 construct: expressed in transfected cells; host or cells: MDCK-MDR1 cells
T1 sequence (P08183 whole entry): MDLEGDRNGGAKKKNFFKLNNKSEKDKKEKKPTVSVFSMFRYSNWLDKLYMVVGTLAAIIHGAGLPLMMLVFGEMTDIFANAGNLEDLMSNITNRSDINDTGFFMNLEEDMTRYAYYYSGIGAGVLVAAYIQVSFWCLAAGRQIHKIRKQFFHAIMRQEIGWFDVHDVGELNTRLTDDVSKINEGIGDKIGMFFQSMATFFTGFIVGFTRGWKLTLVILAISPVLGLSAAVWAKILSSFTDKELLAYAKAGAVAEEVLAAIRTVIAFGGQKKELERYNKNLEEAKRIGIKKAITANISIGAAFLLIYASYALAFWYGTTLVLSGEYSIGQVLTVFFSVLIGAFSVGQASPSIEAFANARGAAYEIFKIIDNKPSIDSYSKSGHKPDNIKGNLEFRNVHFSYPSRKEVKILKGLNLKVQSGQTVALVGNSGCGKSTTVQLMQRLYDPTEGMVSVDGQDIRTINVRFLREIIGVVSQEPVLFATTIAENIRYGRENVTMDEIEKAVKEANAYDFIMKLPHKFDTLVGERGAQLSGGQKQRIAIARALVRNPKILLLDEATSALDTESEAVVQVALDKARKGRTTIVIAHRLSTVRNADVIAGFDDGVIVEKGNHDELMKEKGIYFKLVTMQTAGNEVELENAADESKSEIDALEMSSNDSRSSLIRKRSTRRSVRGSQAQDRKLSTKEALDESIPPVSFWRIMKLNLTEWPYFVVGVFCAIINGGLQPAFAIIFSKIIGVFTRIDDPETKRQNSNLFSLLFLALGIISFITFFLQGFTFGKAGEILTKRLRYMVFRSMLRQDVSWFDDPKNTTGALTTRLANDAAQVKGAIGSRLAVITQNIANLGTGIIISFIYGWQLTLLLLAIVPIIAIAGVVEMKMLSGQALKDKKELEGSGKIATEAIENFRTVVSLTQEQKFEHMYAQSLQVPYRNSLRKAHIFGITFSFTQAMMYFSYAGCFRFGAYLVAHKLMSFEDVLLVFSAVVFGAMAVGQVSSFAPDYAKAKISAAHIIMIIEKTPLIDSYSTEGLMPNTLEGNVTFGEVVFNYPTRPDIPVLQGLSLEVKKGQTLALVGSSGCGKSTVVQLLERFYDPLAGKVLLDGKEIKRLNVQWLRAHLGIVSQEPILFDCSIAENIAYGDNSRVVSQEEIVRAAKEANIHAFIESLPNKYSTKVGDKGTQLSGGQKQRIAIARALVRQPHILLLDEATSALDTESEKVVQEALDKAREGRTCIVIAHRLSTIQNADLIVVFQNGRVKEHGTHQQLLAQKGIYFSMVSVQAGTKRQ
Description: P-gp MDCK-MDR1 Studies. The compounds of the present disclosure were tested in a MDCK-MDR1 permeability assay to assess whether they are actively transported out of cells by the efflux protein, P-glycoprotein (P-gp).
Protocol. MDCK-MDR1 cells were used between passage numbers 6-30. Cells were seeded onto Millipore Multiscreen Transwell plates at 3.4×10^5 cells/cm^2. The cells were cultured in DMEM and media was changed on Day 3. On Day 4 the P-gp inhibition study was performed. Cell culture and assay incubations were carried out at 37° C. in an atmosphere of 5% CO2 with a relative humidity of 95%. On the day of the assay, the monolayers were prepared by rinsing both apical and basolateral surfaces twice with warmed (37° C.) transport buffer (Hanks Balanced Salt Solution [HBSS] containing 25 mM HEPES and 4.45 mM glucose, pH 7.4). Cells were then incubated with transport buffer containing test compound or positive control inhibitor (elacridar) in both apical and basolateral compartments for 30 minutes at 37° C. The dosing solutions were prepared by diluting digoxin and test compound where applicable to give a final digoxin concentration of 5 μM (final DMSO concentration of 1% v/v). The fluorescent integrity marker lucifer yellow was prepared in receiver solutions in vehicle or test compound-containing transport buffer. After pre-incubation, the transport buffer was removed from both apical and basolateral compartments and replaced with the appropriate dosing or receiver solution.
For assessment of B-A permeability, transport buffer was removed from the basolateral companion plate and replaced with dosing solution. Fresh transport buffer containing lucifer yellow and test compound where applicable (final DMSO concentration 1% v/v) was added to the apical compartment insert, which was then placed into the companion plate. After a 90-minute incubation the apical compartment inserts and the companion plates were separated and compartments sampled for analysis. Seven concentrations of test compound (up to 100 μM) were assessed in addition to a vehicle control (0 μM). A triplicate determination of each concentration was performed. The positive control inhibitor was evaluated in parallel. [^3H]-digoxin was quantified by liquid scintillation counting to give disintegrations per minute (dpm). The integrity of the monolayer throughout the experiment was checked by monitoring lucifer yellow permeation using fluorimetric analysis.
The efflux ratio (ER) values of compounds of the present disclosure are shown in Table B below (“****” means <3; “***” 3≥ and <10; “**” means ≥10 and <30; “*” means ≥30).

[1] = tested on: IL-1β release upon NLRP3 activation in peripheral blood mononuclear cells (PBMC); experiment: PBMC IC50 Determination Assay; format: cell-based; settings: Homo sapiens; LPS-primed PBMC stimulated with ATP (5 mM) or nigericin (10 μM); IL-1β by ELISA (Protocol A) or HTRF (Protocol B); salts tested
Description: PBMC IC50 Determination Assay. The compounds of the present disclosure were tested for their inhibitory activity against IL-1β release upon NLRP3 activation in peripheral blood mononuclear cells (PBMC).
Protocol A. PBMC were isolated from buffy coats by density gradient centrifugation on Histopaque-1077 (Sigma, cat no. 10771). Isolated cells were seeded into the wells of a 96-well plate and incubated for 3 h with lipopolysaccharide (LPS). Following medium exchange, the compounds of the present disclosure were added (a single compound per well) and the cells were incubated for 30 min. Next, the cells were stimulated either with ATP (5 mM) or nigericin (10 μM) for 1 h and the cell culture media from the wells were collected for further analysis. The release of IL1-β into the media was determined by a quantitative detection of IL-1β in the media using an IL-1β enzyme-linked immunosorbent assay (ELISA) Ready-SET-Go!, eBioscience cat. No. 88-7261-88. Briefly, in a first step, high affinity binding plates (Corning, Costar 9018 or NUNC Maxisorp Cat No. 44-2404) were coated overnight at 4° C. with specific capture antibody included in the kit (anti-human IL-1β ref. 14-7018-68). Subsequently, plates were blocked with blocking buffer for 1 h at room temperature (rt) and after washing with a buffer (PBS with 0.05% Tween-20) incubated with protein standard and culture media. After 2 h of incubation at rt, plates were washed and incubated with biotinylated detection antibody included in the kit (anti-human IL-1β Biotin ref. 33-7110-68) for 1 h at rt. Plates were washed and incubated with HRP-streptavidin for 30 min at rt and washed again. The signal was developed after addition of 3,3′,5,5′-tetramethylbenzidine-peroxidase (TMB) until colour appeared and the reaction was stopped by 2 M H2SO4. A microplate spectrophotometer (BioTek) was used to detect signals with 450 nm. The detection range of IL-1β 3 ELISA was 2-150 ng/mL.
Protocol B. PBMC were isolated from buffy coats by density gradient centrifugation on Histopaque-1077 (Sigma, cat no. 10771). Isolated cells were seeded into the wells (280,000 cells/well) of a 96-well plate and incubated for 3 h with lipopolysaccharide (LPS, 1 μg/mL diluted 1000× from a 1 mg/mL stock solution). The compounds of the present disclosure were added (a single compound per well) and the cells were incubated for 30 min. Next, the cells were stimulated with ATP (5 mM final concentration diluted 20× from a 100 mM stock solution) for 1 h and the cell culture media from the wells were collected for further analysis. The release of IL-1β into the media was determined by quantitative detection of IL-1 in the media using HTRF®, CisBio cat. No. 62HIL1BPEH. Briefly, cell culture supernatant were dispensed directly into the assay plate containing antibodies labelled with the HTRF® donor and acceptor. A microplate spectrophotometer (BMG) was used to detect signals at 655 nm and 620 nm. The detection range of IL-1β HTRF® was […].

[2] = Thermodynamic (equilibrium) solubility assay; format: physicochemical; settings: aqueous buffer, thermodynamic from solid; 50 mM pH 7.4 phosphate buffer, 24 hours at room temperature
Description: Thermodynamic Solubility Studies. The compounds of the present disclosure were tested in an equilibrium solubility assay.
An appropriate amount of test and control compounds were weighed into lower chambers of Whatman Mini-UniPrep vials. To these were added 50 mM pH 7.4 phosphate buffer (450 μL) to get a super-saturated suspension. The samples were vortexed for at least 2 minutes. The Whatman Mini-UniPrep vials were shaken on a shaker for 24 hours at room temperature at 800 rpm. The vials were centrifuged for 20 minutes (eg. 4000 rpm). Samples were compressed to prepare filtrates for injection into HPLC system and the concentration calculated with a standard curve. […] As shown in the table, compounds of the present disclosure may display improved properties (e.g., over the compounds in the prior art), such as enhanced potency, solubility, membrane permeability and transporter efflux.

PAMPA Pe (PAMPA permeability assay) | MDCK-MDR1 ER (P-glycoprotein (P-gp)) | solubility thermodynamic at 24 h [2] | SMILES | IC50 [1]
$$$ (“$$$” means ≥3 and <10 nm/s) | ** (“**” means ≥10 and <30) | 3000 to 10000 µg/mL | Cn1cc(N(CC2CCCCO2)S(=O)(=O)NC(=O)Nc2c3c(cc4c2CC4)CC3)cn1 (stereo in doubt) [Compound 7A, Sodium [(1-methyl-1H-pyrazol-4-yl)({[(2S)-oxan-2-yl]methyl})sulfamoyl]-({tricyclo[6.2.0.0^3,6]deca-1,3(6),7-trien-2-yl}carbamoyl)azanide] | < 0.1 µM
$$$ (“$$$” means ≥3 and <10 nm/s) | * (“*” means ≥30) | 3000 to 10000 µg/mL | Cn1cc(N(CC2CCCCO2)S(=O)(=O)NC(=O)Nc2c3c(cc4c2CC4)CC3)cn1 (stereo in doubt) [Compound 7B, Sodium [(1-methyl-1H-pyrazol-4-yl)({[(2R)-oxan-2-yl]methyl})sulfamoyl]-({tricyclo[6.2.0.0^3,6]deca-1,3(6),7-trien-2-yl}carbamoyl)azanide)] | < 0.1 µM
– | * (“*” means ≥30) | – | Cn1cc(N(C[C@@H]2CCCO2)S(=O)(=O)NC(=O)Nc2c3c(cc4c2CC4)CC3)cn1 [Compound 3A, Sodium [(1-methyl-1H-pyrazol-4-yl)({[(2S)-oxolan-2-yl]methyl})sulfamoyl]-({tricyclo[6.2.0.0^3,6]deca-1,3(6),7-trien-2-yl}carbamoyl)azanide] | < 0.1 µM
– | * (“*” means ≥30) | – | Cn1cc(N(C[C@H]2CCCO2)S(=O)(=O)NC(=O)Nc2c3c(cc4c2CC4)CC3)cn1 [Compound 3B, Sodium [(1-methyl-1H-pyrazol-4-yl)({[(2R)-oxolan-2-yl]methyl})sulfamoyl]-({tricyclo[6.2.0.0^3,6]deca-1,3(6),7-trien-2-yl}carbamoyl)azanide] | < 0.1 µM

— US20240043410A1, “SULPHAMOYL UREA DERIVATIVES CONTAINING ALKYL-OXACYCLOALKYL MOIETY AND USES THEREOF” (NodThera Limited, priority 2020, published 2024)
